# Results as given in paper PMC5454392, “Selective BET bromodomain inhibition as an antifungal therapeutic strategy” (Nature Communications, 2017).
# “Also recorded” adds a separate entry of the source. Like-named read-outs stand apart in the source and are kept apart here.
# Key:
# [1] = target: T1, CaBdf1 BD2 (Candida albicans, UniProt Q5A4W8); assay: HTRF assay, inhibition of BD binding to H4ac4 peptide; design: made in house; host or cells: E. coli BL21(DE3)
# [2] = target: T2, CaBdf1 BD1 (Candida albicans, UniProt Q5A4W8); assay: as above; design: species or system C. albicans; conditions: for IC50: H4ac4 peptide
# T2 construct: made in house; host or cells: E. coli BL21(DE3)
# [3] = target: T1, CaBdf1 BD2; assay type: binding; design: made in house; host or cells: E. coli BL21(DE3); conditions: CaBdf1 BD2 WT
# Experimental: (§1) In short, arrays were blocked and incubated with 1 μM of purified CaBdf1 BD1 or BD2. Arrays were incubated with recombinant BDs for 2 h at 4 °C in binding buffer (Tris-HCl 50 mM pH 7.4, NP-40 0.1%, NaCl 150 mM, glycerol 10%). […] Assays were performed in duplicate.
# [4] = target: T3, human Brd4 BD1 (Homo sapiens, UniProt O60885); assay: Isothermal titration calorimetry (ITC); assay type: binding; design: human Brd4 BD1 (residues 22–204); His tag with TEV site (N, cleaved yes); made in house; host or cells: E. coli BL21(DE3)
# Experimental: (§2) Proteins used for crystallization and for ITC. […] Cells were resuspended in buffer A (50 mM Tris-HCl pH 7.5, 300 mM NaCl, 10% glycerol, 25 mM imidazole, 5 mM β-mercaptoethanol and protease inhibitors) and lysed by sonication. The cleared lysate was incubated with Ni-NTA resin (Qiagen) and washed with buffer A containing 0.5 M NaCl. Proteins were eluted with 250 mM imidazole, dialysed overnight in the presence of His-tagged TEV protease against buffer A containing no imidazole and incubated with Ni-NTA resin to remove His-tagged species. Proteins were further purified on a Superdex 75 10/300 (GE Healthcare) column in 50 mM Hepes pH 7.5, 150 mM NaCl, 0.5 mM dithiothreitol (DTT). Proteins were concentrated to >20 mg ml^−1 on a Centricon device (Millipore) and used for ITC, TSA and crystallization experiments. […] Expression and purification were performed as above, except that buffer A was replaced by buffer B (50 mM Hepes pH 7.5, 500 mM NaCl, 5% glycerol, 5 mM imidazole and protease inhibitors) and gel filtration was performed in 10 mM Hepes pH 7.5, 500 mM NaCl and 5% glycerol.
# (§3) Calorimetric experiments were performed on a NanoITC calorimeter (TA Instruments) at 25 °C while stirring at 250 r.p.m. All proteins were buffer exchanged by gel filtration into 50 mM Hepes pH 7.5, 150 mM NaCl, 0.5 mM DTT, except for SMARCA2 and SMARCA4A BDs, which were exchanged into 10 mM Hepes pH 7.5, 500 mM NaCl and 5% glycerol. […] Titrations consisted of an initial injection of 1.5 μl followed by 19 identical injections of 2.5 μl made at time intervals of 5 min. ITC data were corrected for the heat of dilution of injectant into buffer and analysed with software provided by the manufacturer using a single binding site model. The first data point was excluded from the analysis. Thermodynamic parameters determined from the ITC data are summarized in Supplementary Table 1.
# [5] = target: T2, CaBdf1 BD1; assay type: binding; conditions: CaBdf1 BD1 WT
# Experimental: as §1
# [6] = target: T2, CaBdf1 BD1; assay: Isothermal titration calorimetry (ITC); assay type: binding
# Experimental: as §2, §3
# [7] = target: T3, human Brd4 BD1; assay: HTRF assay, inhibition of BD binding to H4ac4 peptide; design: human Brd4 BD1 (residues 22–204); His tag with TEV site (N, cleaved yes); made in house; host or cells: E. coli BL21(DE3)
# [8] = target: T4, CaBdf1 BD1 Y248F (Candida albicans, UniProt Q5A4W8, Y248F); assay: Histone peptide microarray binding, YF mutant; design: species or system C. albicans; conditions: CaBdf1 BD1 YF mutant
# T4 construct: made in house; host or cells: E. coli BL21(DE3), inferred from the wild-type GST construct
# Experimental: as §1, with “duplicate. Images were acquired on a Bio-Rad ChemiDoc XRS Imaging machine and data were quantified using the array analyser software provided by Active Motif.” for “duplicate.”
# [9] = target: T5, CaBdf1 BD2 Y425F (Candida albicans, UniProt Q5A4W8, Y425F); assay: Histone peptide microarray binding, YF mutant; design: species or system C. albicans; conditions: CaBdf1 BD2 YF mutant
# T5 construct: made in house; host or cells: E. coli BL21(DE3), inferred from the wild-type GST construct
# Experimental: as §1, with “duplicate. Images were acquired on a Bio-Rad ChemiDoc XRS Imaging machine and data were quantified using the array analyser software provided by Active Motif.” for “duplicate.”
# [10] = test system: C. albicans; assay: C. albicans growth assay in liquid media; assay type: cell-based
# Experimental: Growth on liquid media. C. albicans strains were grown at 30 °C in SC medium to an OD600 of 0.5–0.8. For the evaluation of growth defects related to Bdf1 mutations, log-phase growing cells were counted using a Neubauer chamber and diluted in liquid media to a final concentration of 5,400 cells per ml per well in a sterile 96-well plate. Dox (50 μg ml^−1) or methionine (5 mM)/cysteine (0.25 mM) were added to the media if required. Plates were incubated at 30 °C and OD600 was measured using a Multiskan FC Microplate Photometer (Thermo Fisher). For the evaluation of chemical compounds, strains were grown in SC medium supplemented with 50 μg ml^−1 Dox or 5 mM methionine/0.25 mM cysteine 24 h before counting and then seeded in 96-well plates at the same concentration as mentioned above, with or without chemical compounds. Statistical tests were performed using two-sided Welch t-tests.
# [11] = HTRF, BETi, maximal concentration 10 μM, read-out: IC50 values
# T1 sequence (Q5A4W8 361-501): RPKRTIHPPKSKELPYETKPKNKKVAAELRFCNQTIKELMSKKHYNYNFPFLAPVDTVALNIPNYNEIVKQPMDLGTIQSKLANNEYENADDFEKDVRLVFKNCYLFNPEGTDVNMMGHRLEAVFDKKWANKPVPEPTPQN
# T2 sequence (Q5A4W8 193-327): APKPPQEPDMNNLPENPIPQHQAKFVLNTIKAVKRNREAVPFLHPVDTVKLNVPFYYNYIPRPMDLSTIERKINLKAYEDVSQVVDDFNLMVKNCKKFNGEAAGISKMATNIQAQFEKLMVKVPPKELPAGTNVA
# T4 sequence (Q5A4W8 193-327 Y248F): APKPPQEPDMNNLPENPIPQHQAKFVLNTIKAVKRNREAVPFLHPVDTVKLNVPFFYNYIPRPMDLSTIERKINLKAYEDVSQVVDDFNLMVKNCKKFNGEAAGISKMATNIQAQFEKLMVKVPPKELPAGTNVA
# T5 sequence (Q5A4W8 361-501 Y425F): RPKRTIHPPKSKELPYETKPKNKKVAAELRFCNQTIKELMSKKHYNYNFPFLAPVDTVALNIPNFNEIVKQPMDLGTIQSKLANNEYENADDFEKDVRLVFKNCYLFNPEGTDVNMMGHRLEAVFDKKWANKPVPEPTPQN
smiles,measurement,setting,value
"COc1ccccc1S(=O)(=O)Nc1ccc2c(c1)CN(C)C(=O)N2 [PFI-1, reference compound]",IC50,[1],~10 µM
same,IC50,[2]; [11],> 10 µM
"COc1cc2c(cc1-c1c(C)noc1C)ncc1[nH]c(=O)n([C@H](C)c3ccccn3)c12 [IBET-151, reference compound]",IC50,[1],1.47 ± 0.09 µM
same,IC50,[2]; [11],0.303 ± 0.12 µM
"CCOC(=O)Nc1cc(-c2ccc(C)c(NS(C)(=O)=O)c2)nn2c(C)nnc12 [Bromosporine, reference compound]",IC50,[1],0.313 ± 0.002 µM
same,IC50,[2]; [11],> 10 µM
CN1C(=O)c2ccccc2Sc2cc(NC(=O)C3CCCO3)ccc21 (stereo not drawn) [Compound 3],"Peptide array signal, Normalized (0 to 100%), Average",[3],0.296%
same,"Peptide array signal, raw data, Left",[3]; left replicate array,0.005491
same,"Peptide array signal, raw data, Rigt",[3]; right replicate array,0.01167
same,Kd,[4],13.4 ± 1.7 µM
same,N (stoichiometry),"[4]; ITC, 25 °C",0.92 ± 0.03
same,TΔS,"[4]; ITC, 25 °C",3.107 kcal/mol
same,ΔG,"[4]; ITC, 25 °C",-6.644 kcal/mol
same,ΔH,"[4]; ITC, 25 °C",-3.54 ± 0.454 kcal/mol
same,"Peptide array signal, Normalized (0 to 100%), Average",[5],0.0363%
same,"Peptide array signal, raw data, Left",[5]; left replicate array,0.001069
same,"Peptide array signal, raw data, Rigt",[5]; right replicate array,0.003207
same,Kd,[6],4.8 ± 0.2 µM
same,N (stoichiometry),"[6]; ITC, 25 °C",1.05 ± 0.03
same,TΔS,"[6]; ITC, 25 °C",0.44 kcal/mol
same,ΔG,"[6]; ITC, 25 °C",-7.251 kcal/mol
same,ΔH,"[6]; ITC, 25 °C",-6.81 ± 0.12 kcal/mol
same,inhibition of CaBdf1 BD1 (in words),[2]; HTRF,low-micromolar affinity
same,IC50 for Brd4 BD1 relative to IC50 for CaBdf1 BD1,[2]; HTRF IC50 ratio,7 fold
same,IC50,"[2]; HTRF, read-out: IC50",1.7 ± 0.6 µM
same,IC50,[7],12.5 ± 0.8 µM
same,"Peptide array signal, raw data, Left",[8]; left replicate array,0.004458
same,"Peptide array signal, raw data, Right",[8]; right replicate array,0.001715
same,"Peptide array signal, raw data, Left",[9]; left replicate array,0.001942
same,"Peptide array signal, raw data, Right",[9]; right replicate array,0.002427
same,EC50,"[10]; Candida albicans, read-out: cellular EC50",35 ± 7 µM
same,growth of strains expressing WT Bdf1 or Bdf1 inactivated in BD1 (functional BD2) (in words),"[10]; liquid culture, Met/Cys or Dox",little effect; also recorded: insensitive
same,"growth of strains inactivated in BD2 (bdf1-bd2Δ, bdf1-Y425F) (in words)","[10]; liquid culture, Met/Cys or Dox",significantly inhibited; also recorded: compromises the in vitro growth; also recorded: sensitive
